Data published in article PMC4128046, “Effect of a toggle switch mutation in TM6 of the human adenosine A3 receptor on Gi protein-dependent signalling and Gi-independent receptor internalization” (British Journal of Pharmacology, 2014).
Numbering of substitutions follows the chain as printed.

Experiments:
Assay type in all cases: cell-based
[1] = biological target: T1, human A3 receptor W243F mutant fused to YFP (A3 W243F-YFP) (Homo sapiens, UniProt P0DMS8, W243F); assay: Automated imaging of receptor internalization (granularity analysis), A3 W243F-YFP; conditions: A3 W243F-YFP cells
T1 construct: Full length A3 W243F-YFP was excised and subcloned into a native pcDNA3.1 vector; expressed in transfected cells
T1 sequence (P0DMS8 1-318 W243F): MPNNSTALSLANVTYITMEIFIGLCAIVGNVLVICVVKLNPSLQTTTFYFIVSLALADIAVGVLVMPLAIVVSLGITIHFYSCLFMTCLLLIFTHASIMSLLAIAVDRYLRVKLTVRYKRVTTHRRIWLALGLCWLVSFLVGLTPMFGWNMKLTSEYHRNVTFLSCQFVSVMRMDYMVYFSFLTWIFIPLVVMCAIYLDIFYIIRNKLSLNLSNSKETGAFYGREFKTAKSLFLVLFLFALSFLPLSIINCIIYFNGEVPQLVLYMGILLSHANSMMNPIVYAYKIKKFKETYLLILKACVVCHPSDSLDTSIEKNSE
Description: Immediately before experimentation, normal growth medium was replaced with serum-free medium. […] Medium was removed and cells were washed once in PBS. […] Images were obtained using an ImageXpress Ultra confocal plate reader (Molecular Devices, Sunnyvale, CA, USA). Four central images were obtained per well using a Plan Fluor 40x NA0.6 extra-long working distance objective. BiFC and YFP images were obtained by excitation with a 488 nm laser line with emission collected through a 525-550 nm band pass filter and H33342 images obtained by excitation with a 405 nm laser line and emission collected through a 447-460 nm band pass filter. Granularity analysis was performed on the resulting images using a granularity algorithm within MetaXpress software (Molecular Devices, Sunnyvale, CA, USA) and intensity above background was set for each individual experiment (Kilpatrick et al., [2010]). Areas of internalized receptors were identified by granularity analysis; granules were defined as having a diameter of between 7 and 15 μm and nuclei as having a diameter of between 6 and 9 μm, resulting in a measurement of the granule count per cell for each image. A basal and FSK control was included in each separate concentration-response CRE-SPAP gene transcription assay and cAMP accumulation assay to allow the responses in each cell line to be expressed as an inhibition of FSK-stimulated SPAP production. […] All data were fitted using non-linear regression in Prism 5 (GraphPad Software, San Diego, CA, USA). […] Statistical significance was determined by Student's unpaired t-test or by one-way ANOVA with Dunnett's post hoc analysis and P < 0.05 was considered statistically significant.

A3-YFP [2] = biological target: T2, A3-YFP (Homo sapiens, UniProt P0DMS8); assay: [3H]-cAMP accumulation assay, A3-YFP; conditions: for Emax: read-out: Maximum response (% inhibition of 3 μM FSK), cAMP accumulation assay, A3-YFP cells, 1 h stimulation
T2 construct: cDNA encoding the full length human A3 receptor; expressed in transfected cells
T2 sequence (P0DMS8 1-318): T1 sequence (P0DMS8 1-318 W243F) with F243W
Experimental: (§1) On the day of analysis, cells were labelled with [^3H]-adenine (2 μCi·mL^−1) in a total volume of 600 μL per well for 2 h at 37°C/5% CO2 in normal growth medium. After 2 h, the [^3H]-adenine-containing medium was removed; cells washed once in serum-free medium and fresh serum-free medium, containing 10 μM rolipram, added. The required concentration of agonist was added to the appropriate well and cells incubated for 10 min at 37°C. After 10 min, 10 μM FSK was added to all wells, apart from basal wells, and cells were incubated for a further 1 h at 37°C. The assay was terminated by the addition of 50 μL concentrated HCl to each well. The levels of [^3H]-cAMP incorporated were measured by sequential Dowex and alumina chromatography and the efficiency of each column was determined by the recovery of [^14C]-cAMP as described by Donaldson et al. ([1988]).
(§2) A basal and FSK control was included in each separate concentration-response CRE-SPAP gene transcription assay and cAMP accumulation assay to allow the responses in each cell line to be expressed as an inhibition of FSK-stimulated SPAP production.

A3-YFP [3] = biological target: T2, A3-YFP; assay: ERK1/2 phosphorylation assay (AlphaScreen SureFire), A3-YFP; conditions: for Emax: read-out: Maximum response (% 10 μM NECA), pERK1/2 assay
Experimental: Normal growth medium was replaced with serum-free medium for at least 4 h before analysis. Levels of ERK1/2 phosphorylation were measured using the AlphaScreen SureFire p-ERK assay kit (PerkinElmer). […] Medium was removed from each well and replaced with 40 μL SureFire lysis buffer. After shaking for 5 min, a 1:80:20:120 v v^−1 dilution of AlphaScreen beads : lysate : activation buffer : reaction buffer in a 5.5 μL total volume was transferred to a white opaque 384-well proxiplate in diminished light. After 2 h of incubation in the dark at room temperature, the fluorescence signal was measured with an EnVision plate reader (PerkinElmer) using standard AlphaScreen settings.
as §2

A3 W243F-YFP = biological target: T3, A3 W243F-YFP (Homo sapiens, UniProt P0DMS8, W243F); assay: [3H]-cAMP accumulation assay, A3 W243F-YFP; conditions: for inhibition of FSK-stimulated [3H]-cAMP accumulation after 5 h agonist stimulation / Emax: A3 W243F-YFP cells; for inhibition of FSK-stimulated [3H]-cAMP accumulation after 5 h agonist stimulation: 5 h stimulation, compared with 1 h; for Emax: read-out: Maximum response (% inhibition of 3 μM FSK), cAMP accumulation assay, 1 h stimulation
T3 construct: Full length A3 W243F-YFP was excised and subcloned into a native pcDNA3.1 vector; expressed in transfected cells
T3 sequence (P0DMS8 1-318 W243F): T1 sequence (P0DMS8 1-318 W243F)
Experimental: as §1, with “[…] […]” for “The required concentration of agonist was added to the appropriate well and cells incubated for 10 min at 37°C. After 10 min, 10 μM FSK was added to all wells, apart from basal wells, and cells were incubated for a further 1 h at 37°C.”
as §2

[4] = read-out: pEC50 (cAMP accumulation assay) (converted)

Row | SMILES | effect of pretreatment on NECA-mediated internalization ([1]; 10 μM HEMADO 30 min before NECA 45 min) | accumulation of internalized receptor after 2 h stimulation ([1]; 10 μM agonist, 2 h) | Emax (A3-YFP [2]) | EC50 (A3-YFP [2]; [4]) | EC50 (A3-YFP [3]; A3-YFP cells, 5 min stimulation, read-out: pEC50 (pERK1/2 assay) (converted)) | Emax (A3-YFP [3]) | inhibition of FSK-stimulated [3H]-cAMP accumulation after 5 h agonist stimulation (A3 W243F-YFP) | Emax (A3 W243F-YFP) | EC50 (A3 W243F-YFP; [4]) | Maximal internalization (%) ([1]; percentage of internalization with 10 μM NECA in the cell line)
1 | CCCCC#Cc1nc(NC)c2ncn([C@@H]3O[C@H](CO)[C@@H](O)[C@H]3O)c2n1 [HEMADO, 2-(1-hexynyl)-N-methyladenosine] | virtually abolished | no accumulation of internalized receptor could be detected | 80 ± 5.1% | 2.4 nM | 1.91 nM | 120 ± 5.8% | very little inhibition | 43.2 ± 4.3% | 9.55 nM | 
2 | CCNC(=O)[C@H]1O[C@@H](n2cnc3c(N)ncnc32)[C@H](O)[C@@H]1O [NECA, 5-(N-ethylcarboxamido)adenosine] |  |  | 77.5 ± 6.9% |  |  | 100% | reduced the maximal inhibition | 49.7 ± 2% |  | 100%
